The text below walks through data of patent US10793563B2, “GCN2 inhibitors and uses thereof” (Merck Patent GmbH, priority 2018, dated 2020).

The target of test [1] is intracellular GCN2 (phosphorylation of the GCN2 substrate eIF2α) (Homo sapiens (Human), UniProt Q9P2K8). Put plainly: GCN2 Cellular Inhibition Assay (AlphaScreen SureFire P-eIF2α Ser51, borrelidin-treated U2OS cells). Type of test: cell-based. The settings on record: 10 μM borrelidin, 1 h, phosphorylated eIF2α Ser51, read-out: GCN2 Biomarker (IC50). Put shortly:
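U2OS cells adhered overnight, then given compound (top 40 μM, 4-fold serial dilutions) plus 10 μM borrelidin for 1 h at 37 °C. Lysates assayed for eIF2α phospho-Ser51 by AlphaScreen SureFire; % inhibition versus borrelidin-only wells.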

The next test deals with GCN2 kinase (Homo sapiens (Human), UniProt Q9P2K8). Put plainly: GCN2 Enzyme Inhibition Assay (Transcreener ADP2 fluorescence polarization). As to conditions: 280 μM ATP, 200 μM (RS)7 peptide, 4 nM GCN2, 25° C. Type of test: biochemical. Put shortly: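 Transcreener ADP2 fluorescence polarization detection of ADP from 4 nM GCN2 with (RS)7 substrate in 25 mM Tris-HCl pH 7.5, 50 mM NaCl, 10 mM MgCl2, 1 mM DTT. Compound pre-incubated with enzyme 10 min at 25 °C; reaction started by ATP, run 1 h at 25 °C. IC50 and Ki(app) by tight-binding fit.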
Chain of GCN2 kinase (Q9P2K8 whole entry): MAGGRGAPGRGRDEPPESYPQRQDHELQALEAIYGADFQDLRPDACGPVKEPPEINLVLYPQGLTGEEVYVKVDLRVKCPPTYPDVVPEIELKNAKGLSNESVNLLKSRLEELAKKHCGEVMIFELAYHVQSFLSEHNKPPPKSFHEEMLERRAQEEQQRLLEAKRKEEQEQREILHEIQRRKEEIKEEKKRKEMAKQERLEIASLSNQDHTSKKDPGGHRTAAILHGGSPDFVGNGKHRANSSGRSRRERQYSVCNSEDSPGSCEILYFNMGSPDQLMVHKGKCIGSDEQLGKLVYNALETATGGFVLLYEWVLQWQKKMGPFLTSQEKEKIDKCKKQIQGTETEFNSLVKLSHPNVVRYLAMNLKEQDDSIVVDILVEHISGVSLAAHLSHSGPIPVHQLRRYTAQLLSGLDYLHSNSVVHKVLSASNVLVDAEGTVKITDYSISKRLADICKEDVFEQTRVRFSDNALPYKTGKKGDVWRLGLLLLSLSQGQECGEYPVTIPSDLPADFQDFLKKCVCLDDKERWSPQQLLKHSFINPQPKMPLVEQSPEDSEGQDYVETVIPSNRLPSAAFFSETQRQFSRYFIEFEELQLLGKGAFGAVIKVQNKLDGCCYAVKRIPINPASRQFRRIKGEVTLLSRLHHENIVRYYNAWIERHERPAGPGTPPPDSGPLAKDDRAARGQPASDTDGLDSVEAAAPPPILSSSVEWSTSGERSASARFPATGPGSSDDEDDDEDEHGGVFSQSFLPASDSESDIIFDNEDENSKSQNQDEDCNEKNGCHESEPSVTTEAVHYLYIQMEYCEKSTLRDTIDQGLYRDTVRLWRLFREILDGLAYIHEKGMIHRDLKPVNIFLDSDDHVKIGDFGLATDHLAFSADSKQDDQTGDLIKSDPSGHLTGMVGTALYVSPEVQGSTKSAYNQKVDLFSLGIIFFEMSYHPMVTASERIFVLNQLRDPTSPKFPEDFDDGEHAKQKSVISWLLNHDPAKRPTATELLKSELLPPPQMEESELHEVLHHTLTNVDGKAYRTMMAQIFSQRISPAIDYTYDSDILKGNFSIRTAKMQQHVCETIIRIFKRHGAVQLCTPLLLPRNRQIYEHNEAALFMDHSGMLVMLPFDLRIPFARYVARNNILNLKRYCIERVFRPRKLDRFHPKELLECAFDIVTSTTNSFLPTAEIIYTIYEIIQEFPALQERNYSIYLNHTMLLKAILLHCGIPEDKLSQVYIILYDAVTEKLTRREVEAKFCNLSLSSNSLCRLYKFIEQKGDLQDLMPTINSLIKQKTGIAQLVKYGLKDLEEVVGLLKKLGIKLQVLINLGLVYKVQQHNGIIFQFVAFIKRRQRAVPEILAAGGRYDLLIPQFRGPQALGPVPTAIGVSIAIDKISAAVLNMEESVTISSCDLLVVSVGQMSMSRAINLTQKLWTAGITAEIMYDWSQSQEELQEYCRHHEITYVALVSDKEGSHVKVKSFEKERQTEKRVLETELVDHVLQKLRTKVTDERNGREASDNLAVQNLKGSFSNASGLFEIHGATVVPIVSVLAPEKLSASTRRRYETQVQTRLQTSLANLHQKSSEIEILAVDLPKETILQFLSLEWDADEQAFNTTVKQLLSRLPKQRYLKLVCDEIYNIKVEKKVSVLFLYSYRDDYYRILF
Background: Fluorescence polarisation rises when a labelled molecule tumbles more slowly, as on binding a larger partner.

Chain of intracellular GCN2 (phosphorylation of the GCN2 substrate eIF2α) (Q9P2K8 whole entry): as above

Broadly, the IC50 is the concentration needed to halve the response being measured. As to `O=C(C1CC1(F)F)N1CCN(c2ccnc(-c3cnc4ccc(C(F)(F)F)cn34)n2)CC1c1cn[nH]c1` (centres unmarked) [I-400, (2-(1H-pyrazol-4-yl)-4-(2-(6-(trifluoromethyl)imidazo[1,2-a]pyridin-3-yl)pyrimidin-4-yl)piperazin-1-yl)(2,2-difluorocyclopropyl)methanone], the IC50 in test [1] fell in the range of 500 to 5000 nM; against GCN2 kinase, 10 to 100 nM.

For `CC(C)n1ccc(C(=O)N2[C@H](C)CN(c3ccnc(-c4cnc5ccc(C(F)(F)F)cn45)n3)C[C@@H]2C)n1` [I-401, (cis-2,6-dimethyl-4-(2-(6-(trifluoromethyl)imidazo[12-a]pyridin-3-yl)pyrimidin-4-yl)piperazin-1-yl)(1-isopropyl-1H-pyrazol-3-yl)methanone], the figures for the IC50 (in test [1]; on GCN2 kinase) were 500 to 5000 nM and 100 to 1000 nM, respectively.

Consider `O=C(C1CC(F)(F)C1)N1CCN(c2ccnc(-c3cnc4ccc(C(F)(F)F)cn34)n2)CC1c1cn[nH]c1` (centres unmarked) [I-402, (2-(1H-pyrazol-4-yl)-4-(2-(6-(trifluoromethyl)imidazo[1,2-a]pyridin-3-yl)pyrimidin-4-yl)piperazin-1-yl)(3,3-difluorocyclobutyl)methanone], for which the values for the IC50 (in test [1]; against GCN2 kinase) were 500 to 5000 nM and 100 to 1000 nM, respectively.

Regarding `C[C@@H]1CN(c2ccnc(-c3cnc4ccc(C(F)(F)F)cn34)n2)C[C@H](C)N1C(=O)C1CC1` [I-403, cyclopropyl(cis-2,6-dimethyl-4-(2-(6-(trifluoromethyl)imidazo[1,2-a]pyridin-3-yl)pyrimidin-4-yl)piperazin-1-yl)methanone], the values for the IC50 (in test [1]; against GCN2 kinase) were 500 to 5000 nM and 100 to 1000 nM, respectively.

Consider `C[C@@H](NS(C)(=O)=O)[C@H]1CN(c2ccnc(-c3cnc4ccc(C(F)(F)F)cn34)n2)CCO1` [I-406, N—((R)-1-((R)-4-(2-(6-(trifluoromethyl)imidazo[1,2-a]pyridin-3-yl)pyrimidin-4-yl)morpholin-2-yl)ethyl)methanesulfonamide], for which the values for the IC50 (in test [1]; against GCN2 kinase) were 500 to 5000 nM and 10 to 100 nM, respectively.

For `C[C@H](NS(C)(=O)=O)[C@@H]1CN(c2ccnc(-c3cnc4ccc(C(F)(F)F)cn34)n2)CCO1` [I-407, N—((S)-1-((S)-4-(2-(6-(trifluoromethyl)imidazo[1,2-a]pyridin-3-yl)pyrimidin-4-yl)morpholin-2-yl)ethyl)methanesulfonamide], the IC50 in test [1] is 500 to 5000 nM; against GCN2 kinase, 10 to 100 nM.

For `Cc1n[nH]nc1[C@H]1C[C@@H](C)CN(c2ccnc(-c3cnc4ccc(C(F)(F)F)cn34)n2)C1` [I-408, 3-(4-((3R,5S)-3-methyl-5-(5-methyl-2H-1,2,3-triazol-4-yl)piperidin-1-yl)pyrimidin-2-yl)-6-(trifluoromethyl)imidazo[1,2-a]pyridine], the IC50 in test [1] is 500 to 5000 nM; at GCN2 kinase, 10 to 100 nM.

Regarding `FC(F)(F)c1ccc2ncc(-c3nccc(N4CCCC5(CNC5)C4)n3)n2c1` [I-413, 6-(2-(6-(trifluoromethyl)imidazo[1,2-a]pyridin-3-yl)pyrimidin-4-yl)-2,6-diazaspiro[3.5]nonane], the IC50 in test [1] was more than 5000 nM; at GCN2 kinase it was 100 to 1000 nM.

Turning to `CC(=O)N1[C@H](C)CN(c2ccnc(-c3cnc4ccc(C(F)(F)F)cn34)n2)C[C@@H]1C` [I-414, 1-(cis-2,6-dimethyl-4-(2-(6-(trifluoromethyl)imidazo[1,2-a]pyridin-3-yl)pyrimidin-4-yl)piperazin-1-yl)ethan-1-one], the IC50 in test [1] lay in the range of 500 to 5000 nM; at GCN2 kinase it was 10 to 100 nM.

With `O=C(c1cnn(C2COC2)c1)N1CCN(c2ccnc(-c3cnc4ccc(C(F)(F)F)cn34)n2)CC1c1cn[nH]c1` (centres unmarked) [I-417, (2-(1H-pyrazol-4-yl)-4-(2-(6-(trifluoromethyl)imidazo[1,2-a]pyridin-3-yl)pyrimidin-4-yl)piperazin-1-yl)(1-(oxetan-3-yl)-1H-pyrazol-4-yl)methanone], the IC50 in test [1] was more than 5000 nM; against GCN2 kinase, 100 to 1000 nM.
